Drawing on PMC11767582, “Synthesis and Biological Evaluation of New cis-Restricted Triazole Analogues of Combretastatin A-4” (Molecules, 2025), this text covers IC50 for 24 compounds.

A short description of series [1]: MTT cytotoxicity (growth inhibition) assay, HEK-293 (non-tumor). The class given is cell-based. The following applies: human, HEK-293 embryonic kidney cells (non-tumor). On the procedure: (§1) • Cell culture. Cell culture media were purchased from Gibco (Grand Island, NY, USA). Fetal bovine serum (FBS) was a product of Harlan-Seralab (Belton, UK). Supplements and other chemicals not listed in this section were obtained from Sigma Chemical Co. (St. Louis, MO, USA). Plastics for cell culture were supplied by Thermo Scientific BioLite. All tested compounds were dissolved in DMSO at a concentration of 20 mM and stored at –20 °C until use. HT-29, A-549, and HEK-293 cell lines were maintained in a Dulbecco’s modified Eagle’s medium (DMEM) containing glucose (1 g/L), glutamine (2 mM), penicillin (50 μg/mL), streptomycin (50 μg/mL), and amphotericin B (1.25 μg/mL), supplemented with 10% FBS. • Cytotoxicity assays. 5 × 10^3 cells per well were incubated in 96-well plates with serial dilutions of the tested compounds in a total volume of 100 μL of their growth media. 3-(4,5-dimethylthiazol-2-yl)-2,5-diphenyltetrazolium bromide (MTT; Sigma Chemical Co.) dye reduction assay in 96-well microplates was used. Then, 10 μL of MTT (5 mg/mL in phosphate-buffered saline, PBS) was added to each well after 2 days of incubation (37 °C, 5% CO2 in a humid atmosphere). The plate was incubated for a further 3 h (37 °C). After that, the supernatant was discarded and 100 μL of DMSO were added in order to dissolve formazan crystals. The absorbance was read at 550 nm by spectro-photometry. For all concentrations of compound, cell viability was expressed as the percentage of the ratio between the mean absorbance of treated cells and the mean absorbance of untreated cells. Three independent experiments were performed, and the IC50 values (i.e., concentration half inhibiting cell proliferation) were graphically determined using GraphPad Prism 9 software.

Series [2] deals with human lung cancer cell line A-549. The experiment in a line: MTT cytotoxicity (growth inhibition) assay, A-549. Type of series: cell-based. Here is the method:
as §1

Series [3] relates to human colon cancer cell line HT-29. The experiment in a line: MTT cytotoxicity (growth inhibition) assay, HT-29. Type of series: cell-based. On the procedure: as §1
In series [4] the test system is K562 leukemia cancer cell line. More on the design: method as in PMID 18396050. The following applies: ref [15], cited from earlier work.
In series [5] the test system is human lung cancer cell line A-549. More on the design: method as in PMID 32033084. The following applies: reference compound; ref [30]; read-out: Cytotoxicity IC50 A-549; cited from earlier work.
For series [6], the system named is human embryonic kidney cell line HEK-293. More on the design: method as in PMID 32033084. To be noted: reference compound; ref [30]; read-out: Cytotoxicity IC50 HEK-293; cited from earlier work.
The subject of series [7] is human colon cancer cell line HT-29. More on the design: method as in PMID 32033084. To be noted: reference compound; ref [30]; read-out: Cytotoxicity IC50 HT-29; cited from earlier work.
A further series has as its system HT-29. More on the design: method as in PMID 18396050, PMID 18681482, PMID 22137934, PMID 22304851, PMID 24222525. To be noted: known triazole analogues of CA-4; ref [15],[16],[17],[18],[19],[20]; read-out: IC50 HT-29 (Figure 2); cited from earlier work.
[8] abbreviates: A549, 48 h, read-out: Cytotoxicity IC50 A-549.
[9] abbreviates: HT-29, 48 h, read-out: Cytotoxicity IC50 HT-29.
[10] abbreviates: known triazole analogues of CA-4, read-out: IC50 K562 (Figure 2).

Like-named read-outs stand apart in the source and are kept apart here. A value given as a limit tells only on which side of the number the result lay.

For `COc1cc(-n2nncc2-c2ccccc2)cc(OC)c1OC` [3a, 5-phenyl-1-(3,4,5-trimethoxyphenyl)-1H-1,2,3-triazole], the IC50 (commonly the concentration needed to halve the response being measured) at 48 h in series [1] was > 200 µM. In addition, the IC50 in series [2] (setting [8]) was > 200 µM; in series [3] (setting [9]), > 100 µM.

Regarding `COc1cc(-n2nncc2-c2ccccc2Br)cc(OC)c1OC` [3b, 5-(2-bromophenyl)-1-(3,4,5-trimethoxyphenyl)-1H-1,2,3-triazole], the IC50 at 48 h in series [1] is > 200 µM. In addition, the IC50 in series [2] (setting [8]) and in series [3] (setting [9]) was > 100 µM in each case.

Consider `COc1cc(-n2nncc2-c2ccccc2[N+](=O)[O-])cc(OC)c1OC` [3c, 5-(2-nitrophenyl)-1-(3,4,5-trimethoxyphenyl)-1H-1,2,3-triazole], for which the IC50 at 48 h in series [1] is > 200 µM. Moreover, the values for the IC50 in series [2] (setting [8]) and in series [3] (setting [9]) were > 200 µM and > 100 µM, respectively.

As for `COc1cc(-n2nncc2-c2ccc(C)cc2)cc(OC)c1OC` [3d, 5-(p-tolyl)-1-(3,4,5-trimethoxyphenyl)-1H-1,2,3-triazole], the IC50 at 48 h in series [1] was > 200 µM. Also, the IC50 in series [2] (setting [8]) was > 200 µM; in series [3] (setting [9]), > 100 µM.

`COc1cc(-n2nncc2-c2ccc(C(F)(F)F)cc2)cc(OC)c1OC` [3e, 5-(4-(trifluoromethyl)phenyl)-1-(3,4,5-trimethoxyphenyl)-1H-1,2,3-triazole]: in series [1], the IC50 at 48 h is > 200 µM. Besides, the IC50 in series [2] (setting [8]) was > 100 µM; in series [3] (setting [9]) it was 54 ± 3 µM.

Turning to `COc1cc(-n2nncc2-c2ccc(F)cc2)cc(OC)c1OC` [3f, 5-(4-fluorophenyl)-1-(3,4,5-trimethoxyphenyl)-1H-1,2,3-triazole], in series [1], the half-inhibitory concentration (IC50) at 48 h is > 200 µM. Moreover, the IC50 in series [2] (setting [8]) and in series [3] (setting [9]) was > 200 µM in each case.

Turning to `COc1cc(-n2nncc2-c2ccc(Cl)cc2)cc(OC)c1OC` [3g, 5-(4-chlorophenyl)-1-(3,4,5-trimethoxyphenyl)-1H-1,2,3-triazole], the IC50 at 48 h in series [1] was > 200 µM. Also, the IC50 in series [2] (setting [8]) and in series [3] (setting [9]) was > 100 µM in each case.

As for `COc1cc(-n2nncc2-c2ccc(Br)cc2)cc(OC)c1OC` [3h, 5-(4-bromophenyl)-1-(3,4,5-trimethoxyphenyl)-1H-1,2,3-triazole], the IC50 at 48 h in series [1] is > 200 µM. Further, the IC50 in series [2] (setting [8]) and in series [3] (setting [9]) was > 100 µM in each case.

On to `COc1ccc(-c2cnnn2-c2cc(OC)c(OC)c(OC)c2)cc1` [3i, 5-(4-methoxyphenyl)-1-(3,4,5-trimethoxyphenyl)-1H-1,2,3-triazole], for which, in series [1], the IC50 at 48 h amounted to 35 ± 9 µM. Also, the IC50 in series [2] (setting [8]) was 0.022 ± 0.007 µM; in series [3] (setting [9]), 0.02 ± 0.009 µM; in series [4] (previously described, read-out: IC50 K562 leukemia cancer cell line), 0.027 µM.

In turn, `CCOc1ccc(-c2cnnn2-c2cc(OC)c(OC)c(OC)c2)cc1` [3j, 5-(4-ethoxyphenyl)-1-(3,4,5-trimethoxyphenyl)-1H-1,2,3-triazole] returned an IC50 at 48 h in series [1] of 19 ± 4 µM. The IC50 is 5.8 ± 0.8 µM in series [2] (setting [8]); 0.0021 ± 0.0009 µM in series [3] (setting [9]); 0.002 µM in series [3] (HT-29, 48 h incubation, rounded value, read-out: IC50 HT-29).

With `COc1ccc(-c2cnnn2-c2cc(OC)c(OC)c(OC)c2)c(Br)c1` [3k, 5-(2-bromo-4-methoxyphenyl)-1-(3,4,5-trimethoxyphenyl)-1H-1,2,3-triazole], the IC50 at 48 h in series [1] was > 100 µM. For the same compound, the IC50 came to 33 ± 2 µM in series [2] (setting [8]) and 56 ± 4 µM in series [3] (setting [9]).

Regarding `COc1ccc(Br)c(-c2cnnn2-c2cc(OC)c(OC)c(OC)c2)c1` [3l, 5-(2-bromo-5-methoxyphenyl)-1-(3,4,5-trimethoxyphenyl)-1H-1,2,3-triazole], the IC50 at 48 h in series [1] was > 200 µM. Moreover, the half-maximal inhibitory concentration (IC50) in series [2] (setting [8]) was > 200 µM; in series [3] (setting [9]), > 100 µM.

Turning to `CCOc1ccc(-c2cnnn2-c2cc(OC)c(OC)c(OC)c2)cc1Br` [3m, 5-(3-bromo-4-ethoxyphenyl)-1-(3,4,5-trimethoxyphenyl)-1H-1,2,3-triazole], in series [1], the IC50 at 48 h is > 200 µM. Moreover, the IC50 came out at 59 ± 1 µM in series [2] (setting [8]) and 20 ± 5 µM in series [3] (setting [9]).

On to `COc1ccc(-c2cnnn2-c2cc(OC)c(OC)c(OC)c2)cc1Cl` [3n, 5-(3-chloro-4-methoxyphenyl)-1-(3,4,5-trimethoxyphenyl)-1H-1,2,3-triazole], for which the IC50 at 48 h in series [1] came out at 0.025 ± 0.008 µM. For the same compound, the IC50 stood at 0.0032 ± 0.0009 µM in series [2] (setting [8]); 0.003 µM in series [2] (A549, 48 h incubation, rounded value, read-out: IC50 A-549); 0.021 ± 0.006 µM in series [3] (setting [9]).

Take `COc1ccc(-c2cnnn2-c2cc(OC)c(OC)c(OC)c2)cc1OC` [3o, 5-(3,4-dimethoxyphenyl)-1-(3,4,5-trimethoxyphenyl)-1H-1,2,3-triazoletriazole]: in series [1], the IC50 at 48 h was > 200 µM. For the same compound, the IC50 in series [2] (setting [8]) was > 200 µM; in series [3] (setting [9]) it was > 100 µM.

On to `COc1cc(-n2nncc2-c2ccc(O)c(Br)c2)cc(OC)c1OC` [3p, 2-bromo-4-(1-(3,4,5-trimethoxyphenyl)-1H-1,2,3-triazol-5-yl)phenol], for which the IC50 at 48 h in series [1] is > 200 µM. The IC50 in series [2] (setting [8]) and in series [3] (setting [9]) was > 200 µM in each case.

As for `COc1cc(-n2nncc2-c2ccc(O)c(O)c2)cc(OC)c1OC` [3q, 4-(1-(3,4,5-trimethoxyphenyl)-1H-1,2,3-triazol-5-yl)benzene-1,2-diol], the IC50 at 48 h in series [1] was > 200 µM. Besides, the IC50 in series [2] (setting [8]) and in series [3] (setting [9]) was > 200 µM in each case.

On to `COc1ccc(/C=C\c2cc(OC)c(OC)c(OC)c2)cc1O` [CA-4, combretastatin A-4], for which the IC50 was 0.428 ± 0.004 µM in series [5], 25 ± 3 µM in series [6] and 4.2 ± 0.5 µM in series [7].

For the compound `COc1ccc(-c2cnnn2-c2cc(OC)c(OC)c(OC)c2)cc1Br` [R^1 = H, R^2 = Br], the IC50 in series [4] (setting [10]) was 0.057 µM.

`COc1ccc(-c2cnnn2-c2cc(OC)c(OC)c(OC)c2)cc1N` [R^1 = H, R^2 = NH2]: the IC50 in series [4] (setting [10]) was 0.011 µM.

Regarding `COc1ccc(-c2cnnn2-c2cc(OC)c(OC)c(OC)c2)cc1[N+](=O)[O-]` [R^1 = H, R^2 = NO2], the IC50 in series [4] (setting [10]) is 0.46 µM.

Turning to `COc1ccc(-c2cnnn2-c2cc(OC)c(OC)c(OC)c2)c(F)c1F` [R^1 = R^2 = F], the IC50 in the series with HT-29 was 1.9 µM.

Turning to `COc1ccc(-c2cnnn2-c2cc(OC)c(OC)c(OC)c2)c(N)c1N` [R^1 = R^2 = NH2], in the series on HT-29, the IC50 was 17.2 µM.

As to `COc1cc(-n2nncc2-c2ccc(OC)c([N+](=O)[O-])c2[N+](=O)[O-])cc(OC)c1OC` [R^1 = R^2 = NO2], the IC50 in the series with HT-29 was 12 µM.
